Where two headings read alike, the source gives them in different places.
How the values were obtained:
Format in all cases: cell-based
ERα = biological target: T1, ERα (Homo sapiens, UniProt P03372); test: ER degradation in MCF-7 cells (Western blot); conditions: for DC50: ER degradation, 24 hours; for Dmax: MCF7, Maximal ER degradation, read-out: Dmax
T1 construct: endogenous in cells; host or cells: MCF-7
T1 sequence (P03372 1-595): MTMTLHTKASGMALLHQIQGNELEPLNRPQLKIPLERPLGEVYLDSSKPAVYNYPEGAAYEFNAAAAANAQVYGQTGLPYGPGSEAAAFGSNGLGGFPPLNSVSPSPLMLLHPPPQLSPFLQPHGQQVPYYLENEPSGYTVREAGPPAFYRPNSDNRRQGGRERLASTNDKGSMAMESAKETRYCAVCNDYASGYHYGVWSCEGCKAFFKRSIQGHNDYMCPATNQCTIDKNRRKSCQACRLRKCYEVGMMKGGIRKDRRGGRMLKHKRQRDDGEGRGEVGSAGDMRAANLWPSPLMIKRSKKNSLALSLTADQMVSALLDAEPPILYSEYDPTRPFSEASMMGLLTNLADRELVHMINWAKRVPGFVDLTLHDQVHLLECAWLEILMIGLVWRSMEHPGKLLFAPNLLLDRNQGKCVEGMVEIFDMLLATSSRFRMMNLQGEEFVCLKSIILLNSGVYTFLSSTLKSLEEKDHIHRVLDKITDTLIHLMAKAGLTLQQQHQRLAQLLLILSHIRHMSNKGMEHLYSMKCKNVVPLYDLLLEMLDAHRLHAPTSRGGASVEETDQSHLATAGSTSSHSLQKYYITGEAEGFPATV
Experimental: Degradation of ER in MCF-7 Breast Cancer Cells by Exemplary Compounds of the Present Disclosure
MCF-7 cells were plated in 24-well plates at a density of 10^5 cells/well. Media containing various drug concentrations were added on the day following plating (day 0) and allowed to incubate for 24 hours for Western blot. Media with the tested compound was changed every other day. Cells were lysed, snapped frozen in liquid nitrogen, and stored at −80° C. until assay for ERα. Media were removed and dishes were washed with 1× DPBS. Lysates were made by adding 150 μL of complete lysis solution and scraping cells into a 1.5 mL microcentrifuge tube. Lysates were placed on a rotisserie at 4° C. for 30 min and then spun at 4° C. at 12000 rcf for 10 min. Supernatants were assayed for protein content, snap-frozen, and stored a −80° C. if not run immediately. Then 50 μg of protein was subjected to Western blot protocol. Membranes were blocked and then incubated with 1:200 dilution of ERα antibody at 4° C. overnight followed by 1:10000 dilution of secondary antibody for 1 h at room temperature. They were then imaged on a LICOR infrared scanner.
FIGS. 1 to 10 show the ER degradation efficacy of compounds 3, 5, 9, 11, 12, 16, 18, 19, 20, 21, 23, 24, 25, 26, 27, 28, 29, 30, 31, 32, 33, 34, 37, 38, and 40 in MCF-7 cells at various concentrations. Degradation of ER was expressed as an DC50 value and was determined for exemplary compounds in Table 1 by calculation of the concentration of compound that was required to give a 50% reduction of ER expression level. Maximal degradation of ER was expressed as a Dmax value by measuring the highest percentage of ER reduction achieved by exemplary compound in the treatment concentration range.

ER = biological target: T2, ER (Homo sapiens, UniProt P03372); test: ER antagonism (T47D ERE luciferase), T47d-kb-Luc cells; conditions: read-out: IC50 (ER antagonistm)
T2 construct: endogenous in cells; host or cells: T47d-kb-Luc (T47D stably transfected with a luciferase reporter gene only)
T2 sequence (P03372 1-595): T1 sequence (P03372 1-595)
Experimental: The Antiestrogenic Activity of the Exemplary Compounds was Assessed in T47d-kb-Luc Stably Transfected Human Breast Cancer Cell
Antagonist activities were measured by the compound's ability to inhibit the activity of estradiol, the natural estrogen. Data were then normalized relative to the activity of the estradiol control and determinations were performed for five concentrations of the samples in quadruplicate in at least three separate experiments.

[1] = test system: MCF-7 breast cancer cells; test: MCF-7 proliferation / cell viability assay; conditions: MCF-7 proliferation with 0.1 nM 17-beta estradiol, read-out: IC50 (anti-proliferation)
Experimental: The Anti-Proliferative Activities of the Exemplary Compounds were Assessed by a Cell Viability Assay in MCF-7 Breast Cancer Cells
MCF-7 cells were plated in six-well plates at a density of 50,000 each well in 5% FBS DMEM medium. The cells were then treated with exemplary compounds or fulvestrant separately at 6 different doses ranging from 10^−10 M to 10^−5 M for 5 days, while equal volumes of DMSO were used as vehicle controls. Viable cell numbers were counted with a Z Series Coulter Counter instrument (Beckman-Coulter) following manufacturer's instructions. The ratio of drug treated viable cell numbers to vehicle treated viable cell numbers was defined as survival ratio where the control has the survival ratio of 100%.

Row | SMILES | DC50 (ERα) [nM] | IC50 (ER) [nM] | IC50 [1] [nM] | Dmax (ERα) [%] | IC50 ([1]; Homo sapiens, MCF7) [nM]
1 | CC/C(=C(\c1ccc(B(O)O)cc1)c1ccc(N2CCC(CN3CCN(c4ccc5c(c4)CN(C4CCC(=O)NC4=O)C5=O)CC3)CC2)cc1)c1ccccc1 (stereo not shown) [Compound 1] | < 10 | 10 to 50 |  | > 90 | 10 to 50
2 | CC/C(=C(/c1ccc(B(O)O)cc1)c1ccc(N2CCC(CN3CCN(c4ccc5c(c4)CN(C4CCC(=O)NC4=O)C5=O)CC3)CC2)cc1)c1ccccc1 (stereo not shown) [Compound 2, (E)-(4-(1-(4-(4-((4-(2-(2,6-dioxopiperidin-3-yl)-1-oxoisoindolin-5-yl)piperazin-1-yl)methyl)piperidin-1-yl)phenyl)-2-phenylbut-1-en-1-yl)phenyl)boronic acid] | < 10 | 10 to 50 |  | > 90 | 10 to 50
3 | CC/C(=C(\c1ccc(B(O)O)cc1)c1ccc(N2CCC(CN3CCN(c4ccc5c(c4)C(=O)N(C4CCC(=O)NC4=O)C5)CC3)CC2)cc1)c1ccccc1 (stereo not shown) [Compound 3, (Z)-(4-(1-(4-(4-((4-(2-(2,6-dioxopiperidin-3-yl)-3-oxoisoindolin-5-yl)piperazin-1-yl)methyl)piperidin-1-yl)phenyl)-2-phenylbut-1-en-1-yl)phenyl)boronic acid] | > 50 | < 10 |  | > 75 | < 10
4 | CC/C(=C(/c1ccc(B(O)O)cc1)c1ccc(N2CCC(CN3CCN(c4ccc5c(c4)C(=O)N(C4CCC(=O)NC4=O)C5)CC3)CC2)cc1)c1ccccc1 (stereo not shown) [Compound 4, (E)-(4-(1-(4-(4-((4-(2-(2,6-dioxopiperidin-3-yl)-3-oxoisoindolin-5-yl)piperazin-1-yl)methyl)piperidin-1-yl)phenyl)-2-phenylbut-1-en-1-yl)phenyl)boronic acid] | > 50 | < 10 |  | > 75 | < 10
5 | CC/C(=C(\c1ccc(B(O)O)cc1)c1ccc(N2CCC(CN3CCN(c4ccc5c(c4)C(=O)N(C4CCC(=O)NC4=O)C5=O)CC3)CC2)cc1)c1ccccc1 (stereo not shown) [Compound 5, (Z)-(4-(1-(4-(4-((4-(2-(2,6-dioxopiperidin-3-yl)-1,3-dioxoisoindolin-5-yl)piperazin-1-yl)methyl)piperidin-1-yl)phenyl)-2-phenylbut-1-en-1-yl)phenyl)boronic acid] | 10 to 50 | 10 to 50 |  | > 90 | > 50
6 | CC/C(=C(/c1ccc(B(O)O)cc1)c1ccc(N2CCC(CN3CCN(c4ccc5c(c4)C(=O)N(C4CCC(=O)NC4=O)C5=O)CC3)CC2)cc1)c1ccccc1 (stereo not shown) [Compound 6, (E)-(4-(1-(4-(4-((4-(2-(2,6-dioxopiperidin-3-yl)-1,3-dioxoisoindolin-5-yl)piperazin-1-yl)methyl)piperidin-1-yl)phenyl)-2-phenylbut-1-en-1-yl)phenyl)boronic acid] | 10 to 50 | 10 to 50 |  | > 90 | > 50
7 | CC/C(=C(\c1ccc(B(O)O)cc1)c1ccc(N2CCC(CCN3CCN(c4ccc5c(c4)CN(C4CCC(=O)NC4=O)C5=O)CC3)CC2)cc1)c1ccccc1 (stereo not shown) [Compound 7, (Z)-(4-(1-(4-(4-(2-(4-(2-(2,6-dioxopiperidin-3-yl)-1-oxoisoindolin-5-yl)piperazin-1-yl)ethyl)piperidin-1-yl)phenyl)-2-phenylbut-1-en-1-yl)phenyl)boronic acid] | 10 to 50 | < 10 |  | > 90 | 10 to 50

The next lines start with the values.

Row | DC50 (ERα) [nM] | IC50 (ER) [nM] | IC50 [1] [nM] | Dmax (ERα) [%] | IC50 ([1]; Homo sapiens, MCF7) [nM] | SMILES
8 | < 10 | 10 to 50 | 10 to 50 |  |  | CCC(=C(c1ccc(OCCN2CCN(CC3CCN(c4ccc5c(c4)C(=O)N(C4CCC(=O)NC4=O)C5=O)CC3)CC2)cc1)c1ccc(B(O)O)cc1)c1ccccc1 (stereo in doubt) [Compound 18, (E)-(4-(1-(4-(2-(4-((1-(2-(2,6-dioxopiperidin-3-yl)-1,3-dioxoisoindolin-5-yl)piperidin-4-yl)methyl)piperazin-1-yl)ethoxy)phenyl)-2-phenylbut-1-en-1-yl)phenyl)boronic acid]
9 | 10 to 50 | < 10 |  | > 90 | 10 to 50 | CC/C(=C(/c1ccc(B(O)O)cc1)c1ccc(N2CCC(CCN3CCN(c4ccc5c(c4)CN(C4CCC(=O)NC4=O)C5=O)CC3)CC2)cc1)c1ccccc1 (stereo not shown) [Compound 8, (E)-(4-(1-(4-(4-(2-(4-(2-(2,6-dioxopiperidin-3-yl)-1-oxoisoindolin-5-yl)piperazin-1-yl)ethyl)piperidin-1-yl)phenyl)-2-phenylbut-1-en-1-yl)phenyl)boronic acid]
10 | 10 to 50 | < 10 |  | > 90 | < 10 | CC/C(=C(\c1ccc(B2OC(C)(C)C(C)(C)O2)cc1)c1ccc(N2CCC(CCN3CCN(c4ccc5c(c4)CN(C4CCC(=O)NC4=O)C5=O)CC3)CC2)cc1)c1ccccc1 (stereo not shown) [Compound 9, (Z)-3-(1-oxo-5-(4-(2-(1-(4-(2-phenyl-1-(4-(4,4,5,5-tetramethyl-1,3,2-dioxaborolan-2-yl)phenyl)but-1-en-1-yl)phenyl)piperidin-4-yl)ethyl)piperazin-1-yl)isoindolin-2-yl)piperidine-2,6-dione]
11 | 10 to 50 | < 10 |  | > 90 | < 10 | CC/C(=C(/c1ccc(B2OC(C)(C)C(C)(C)O2)cc1)c1ccc(N2CCC(CCN3CCN(c4ccc5c(c4)CN(C4CCC(=O)NC4=O)C5=O)CC3)CC2)cc1)c1ccccc1 (stereo not shown) [Compound 10, (E)-3-(1-oxo-5-(4-(2-(1-(4-(2-phenyl-1-(4-(4,4,5,5-tetramethyl-1,3,2-dioxaborolan-2-yl)phenyl)but-1-en-1-yl)phenyl)piperidin-4-yl)ethyl)piperazin-1-yl)isoindolin-2-yl)piperidine-2,6-dione]
12 | < 10 | < 10 |  | > 90 | < 10 | CC/C(=C(\c1ccc(B(O)O)cc1)c1ccc(N2CCC(CNC3CCN(c4ccc5c(c4)CN(C4CCC(=O)NC4=O)C5=O)CC3)CC2)cc1)c1ccccc1 (stereo not shown) [Compound 11]
13 | < 10 | < 10 |  | > 90 | < 10 | CC/C(=C(/c1ccc(B(O)O)cc1)c1ccc(N2CCC(CNC3CCN(c4ccc5c(c4)CN(C4CCC(=O)NC4=O)C5=O)CC3)CC2)cc1)c1ccccc1 (stereo not shown) [Compound 12]
14 | < 10 | < 10 |  | > 90 | < 10 | CC/C(=C(\c1ccc(B(O)O)cc1)c1ccc(N2CCC(CNC3CCN(c4ccc5c(c4)C(=O)N(C4CCC(=O)NC4=O)C5)CC3)CC2)cc1)c1ccccc1 (stereo not shown) [Compound 13, (Z)-(4-(1-(4-(4-(((1-(2-(2,6-dioxopiperidin-3-yl)-3-oxoisoindolin-5-yl)piperidin-4-yl)amino)methyl)piperidin-1-yl)phenyl)-2-phenylbut-1-en-1-yl)phenyl)boronic acid]

— patent US20220348595A1, “COMPOUNDS AND METHODS FOR THE TARGETED DEGRADATION OF ESTROGEN RECEPTORS” (Endotarget Inc., priority 2021, published 2022)
